Experimental findings from ChEMBL document CHEMBL1155546, “Rapid synthesis of an array of trisubstituted urea-based soluble epoxide hydrolase inhibitors facilitated by a novel solid-phase method” (Bioorg Med Chem Lett, 2010) are described below.

The target of data set [1] is T1, Bifunctional epoxide hydrolase 2 (Homo sapiens, UniProt P34913).
T1 sequence (P34913 whole entry): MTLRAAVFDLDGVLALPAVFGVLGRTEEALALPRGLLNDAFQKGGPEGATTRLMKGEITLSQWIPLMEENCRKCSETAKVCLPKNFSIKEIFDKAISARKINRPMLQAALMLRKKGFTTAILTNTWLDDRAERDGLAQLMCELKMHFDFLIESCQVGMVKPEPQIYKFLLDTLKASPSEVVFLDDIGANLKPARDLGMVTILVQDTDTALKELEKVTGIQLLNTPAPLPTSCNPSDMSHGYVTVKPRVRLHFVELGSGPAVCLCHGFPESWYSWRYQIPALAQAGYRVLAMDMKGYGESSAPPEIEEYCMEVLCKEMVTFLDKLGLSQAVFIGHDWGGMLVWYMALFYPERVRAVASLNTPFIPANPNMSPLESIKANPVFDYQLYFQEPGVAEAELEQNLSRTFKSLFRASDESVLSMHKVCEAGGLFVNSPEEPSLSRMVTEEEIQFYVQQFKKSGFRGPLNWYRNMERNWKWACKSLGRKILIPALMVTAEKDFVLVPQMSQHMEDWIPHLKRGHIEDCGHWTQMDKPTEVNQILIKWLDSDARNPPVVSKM
As to the kind of experiment: Inhibition of human soluble epoxide hydrolase assessed as [2-3H]trans-1,3-diphenyl propylene oxide hydrolysis by cellular assay.

Data set [2] addresses T1, Bifunctional epoxide hydrolase 2. The experiment in a line: Inhibition of human soluble epoxide hydrolase.
In data set [3] the target is Cytochrome P450 2C9 (Homo sapiens, UniProt P11712). The experiment in a line: Inhibition of CYP2C9. Format: ADME.
Chain of Cytochrome P450 2C9 (P11712 whole entry): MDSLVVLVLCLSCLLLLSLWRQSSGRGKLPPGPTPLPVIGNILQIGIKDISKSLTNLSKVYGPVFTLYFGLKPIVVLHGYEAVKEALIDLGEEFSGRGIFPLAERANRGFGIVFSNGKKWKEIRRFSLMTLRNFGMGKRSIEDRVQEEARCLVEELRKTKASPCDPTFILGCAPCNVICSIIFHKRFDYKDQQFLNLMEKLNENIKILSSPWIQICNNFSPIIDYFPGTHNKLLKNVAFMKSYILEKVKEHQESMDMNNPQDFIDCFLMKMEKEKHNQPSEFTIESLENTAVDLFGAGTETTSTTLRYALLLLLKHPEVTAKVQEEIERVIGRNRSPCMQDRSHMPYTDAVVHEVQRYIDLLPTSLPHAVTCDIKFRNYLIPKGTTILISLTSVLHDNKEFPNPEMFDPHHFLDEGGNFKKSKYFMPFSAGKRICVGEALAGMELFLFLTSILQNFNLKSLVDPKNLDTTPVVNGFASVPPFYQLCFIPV
Data set [4] in a line: Half life in human liver microsome. Conditions: liver microsomes. Format: ADME.
Data set [5] in a line: Half life in mouse liver microsome. Format: ADME. Conditions: liver microsomes.
In data set [6] the target is T2, Cytochrome P450 2J2 (Homo sapiens, UniProt P51589).
T2 sequence (P51589 whole entry): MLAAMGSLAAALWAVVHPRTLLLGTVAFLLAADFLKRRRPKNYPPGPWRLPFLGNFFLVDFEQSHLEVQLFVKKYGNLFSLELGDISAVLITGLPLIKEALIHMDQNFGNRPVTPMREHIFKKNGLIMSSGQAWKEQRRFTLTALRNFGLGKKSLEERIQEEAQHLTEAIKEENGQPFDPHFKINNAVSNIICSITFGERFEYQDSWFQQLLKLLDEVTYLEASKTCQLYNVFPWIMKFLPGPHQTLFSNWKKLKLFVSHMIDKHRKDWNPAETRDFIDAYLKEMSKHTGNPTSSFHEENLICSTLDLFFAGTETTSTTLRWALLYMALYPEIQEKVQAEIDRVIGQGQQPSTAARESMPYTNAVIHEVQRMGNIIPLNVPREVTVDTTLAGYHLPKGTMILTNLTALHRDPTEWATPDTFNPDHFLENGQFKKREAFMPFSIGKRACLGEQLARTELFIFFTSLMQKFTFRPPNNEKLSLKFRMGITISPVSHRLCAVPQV
As to the kind of experiment: Inhibition of CYP2J2.

As to `O=C(NCCC(c1ccc(F)cc1)c1ccc(F)cc1)N1CCC(Oc2cnccn2)CC1`, the IC50 in data set [1] was 0.013 µM; in data set [2], 0.001 µM; in data set [3], 2.9 µM. Also, the half-life stood at 7 min in data set [4] and 2 min in data set [5].

Take `O=C(NCCC(c1ccc(F)cc1)c1ccc(F)cc1)N1CCC(c2cnccn2)C1` (stereo not drawn): the IC50 was 0.004 µM in data set [1], 0.003 µM in data set [2] and 8.1 µM in data set [3]. Moreover, the half-life in data set [4] and in data set [5] was 2 min each time.

On to `O=C(NCc1ccccc1OC(F)(F)F)N1CCC(Oc2ncccn2)CC1`, for which the IC50 came to 0.04 µM in data set [1], 0.004 µM in data set [2], 2 µM in data set [6] and 10.2 µM in data set [3]. The half-life in data set [4] was found to be 54 min; in data set [5], 10 min.

Consider `O=C(NCc1ccccc1OC(F)(F)F)N1CCC(c2ccncc2)C1` (stereo not drawn), for which the IC50 in data set [1] came to 0.076 µM; in data set [2], 0.007 µM; in data set [6] it was 10 µM; in data set [3], 0.3 µM. Also, the half-life in data set [4] is 23 min; in data set [5], 42 min.

As for `O=C(NCc1ccc(Cl)cc1Cl)N1CCC(Oc2ccncc2)CC1`, the IC50 in data set [1] is 0.022 µM; in data set [2] it was 0.009 µM; in data set [6] it was 2.7 µM; in data set [3] it was 0.1 µM. The half-life turned out to be 42 min in data set [4] and 25 min in data set [5].

As for `O=C(NCc1ccccc1OC(F)(F)F)N1CCC(Oc2ccncc2)CC1`, the IC50 worked out at 0.014 µM in data set [2], 10 µM in data set [6] and 0.8 µM in data set [3]. The results for the half-life in data set [4] and in data set [5] were 34 min and 42 min, respectively.
